Here are results for 22 molecules from patent US9730937B2, “RAF kinase modulator compounds and methods of use thereof” (AMBIT BIOSCIENCES CORPORATION, priority 2008, dated 2017).

The experiment relates to panel of 290 distinct kinases (321 in the larger panel), excluding mutant variants. Particulars: asterisk: panel of 321 distinct kinases.

Counter-ions that a name gives are not always drawn.

Turning to `COCCOc1cc2ncnc(Oc3cccc(NC(=O)Nc4cc(C(C)(C)F)no4)c3)c2cc1OC` [Ex 218, 1-(3-(2-fluoropropan-2-yl)isoxazol-5-yl)-3-(3-(6-methoxy-7-(2-methoxyethoxy)quinazolin-4-yloxy)phenyl)urea], the S35 result was “C* (0.20 < C ≦ 0.40)”.
Take `COCCOc1cc2ncnc(Oc3cccc(NC(=O)Nc4cc(C5CCCC5)on4)c3)c2cc1OC` [Ex 219, 1-(5-cyclopentylisoxazol-3-yl)-3-(3-(6-methoxy-7-(2-methoxyethoxy)quinazolin-4-yloxy)phenyl)urea]: the S35 result is given as “C* (0.20 < C ≦ 0.40)”.
As for `COCCOc1cc2ncnc(Oc3cccc(NC(=O)Nc4cc(C(F)(F)F)nn4C)c3)c2cc1OC` [Ex 220, 1-{3-[6-methoxy-7-(2-methoxyethoxy)quinazolin-4-yloxy]phenyl}-3-[1-methyl-3-(trifluoromethyl)-1H-pyrazol-5-yl]urea], the S35 entry is “C* (0.20 < C ≦ 0.40)”.
As for `COCCOc1cc2ncnc(Oc3cccc(NC(=O)Nc4cc(C(F)(F)F)nn4-c4ccccc4)c3)c2cc1OC` [Ex 221, 1-{3-[6-methoxy-7-(2-methoxyethoxy)quinazolin-4-yloxy]phenyl}-3-[1-phenyl-3-(trifluoromethyl)-1H-pyrazol-5-yl]urea], the S35 result is given as “C* (0.20 < C ≦ 0.40)”.
Turning to `COCCOc1cc2ncnc(Oc3cccc(NC(=O)Nc4ccc(C(F)(F)F)c(F)c4)c3)c2cc1OC` [Ex 222, 1-(3-fluoro-4-(trifluoromethyl)phenyl)-3-(3-(6-methoxy-7-(2-methoxyethoxy)quinazolin-4-yloxy)phenyl)urea], the S35 result is reported as “C* (0.20 < C ≦ 0.40)”.
As for `COCCOc1cc2ncnc(Oc3cccc(NC(=O)Nc4ccc(C(F)(F)F)c(OC)c4)c3)c2cc1OC` [Ex 223, 1-(3-methoxy-4-(trifluoromethyl)phenyl)-3-(3-(6-methoxy-7-(2-methoxyethoxy)quinazolin-4-yloxy)phenyl)urea], the S35 entry is on record as “C* (0.20 < C ≦ 0.40)”.
As for `CCOC(=O)Cn1nc(C(C)(C)C)cc1NC(=O)Nc1cccc(Oc2ncnc3cc(OCCOC)c(OC)cc23)c1` [Ex 224, ethyl 2-[3-tert-butyl-5-(3-{3-[6-methoxy-7-(2-methoxyethoxy)quinazolin-4-yloxy]phenyl}ureido)-1H-pyrazol-1-yl]acetate hydrochloride], the S35 entry is “A* (A ≦ 0.10)”.
As to `COCCOc1cc2ncnc(Oc3cccc(NC(=O)Nc4cc(C(F)(F)F)n(-c5ccccc5)n4)c3)c2cc1OC` [Ex 225, 1-{3-[6-methoxy-7-(2-methoxyethoxy)quinazolin-4-yloxy]phenyl}-3-[1-phenyl-5-(trifluoromethyl)-1H-pyrazol-3-yl]urea], the S35 result is recorded as “C* (0.20 < C ≦ 0.40)”.
For `COCCOc1cc2ncnc(Oc3cccc(NC(=O)Nc4cc(C(F)(F)F)nn4-c4ccc(F)cc4)c3)c2cc1OC` [Ex 226, 1-[1-(4-fluorophenyl)-3-(trifluoromethyl)-1H-pyrazol-5-yl]-3-{3-[6-methoxy-7-(2-methoxyethoxy)quinazolin-4-yloxy]phenyl}urea] the value was “C* (0.20 < C ≦ 0.40)”.
Turning to `COCCOc1cc2ncnc(Oc3cccc(NC(=O)Nc4cc(C(F)(F)F)nn4-c4ccc(C)cc4)c3)c2cc1OC` [Ex 227, 1-{3-[6-methoxy-7-(2-methoxyethoxy)quinazolin-4-yloxy]phenyl}-3-[1-p-tolyl-3-(trifluoromethyl)-1H-pyrazol-5-yl]urea], the S35 entry is on record as “C* (0.20 < C ≦ 0.40)”.
For `COCCOc1cc2ncnc(Oc3cccc(NC(=O)Nc4cc(C(C)(CF)CF)nn4-c4ccccc4)c3)c2cc1OC` [Ex 228, 1-[3-(1,3-difluoro-2-methylpropan-2-yl)-1-phenyl-1H-pyrazol-5-yl]-3-{3-[6-methoxy-7-(2-methoxyethoxy)quinazolin-4-yloxy]phenyl}urea], the S35 entry was “D* (D > 0.40)”.
Take `COCCOc1cc2ncnc(Oc3cccc(NC(=O)Nc4cc(C(F)(F)F)no4)c3)c2cc1OC` [Ex 229, 1-(3-(6-methoxy-7-(2-methoxyethoxy)quinazolin-4-yloxy)phenyl)-3-(3-(trifluoromethyl)isoxazol-5-yl)urea]: the S35 result is recorded as “C* (0.20 < C ≦ 0.40)”.
Turning to `COCCOc1cc2ncnc(Sc3cccc(NC(=O)Nc4cc(C(C)(CF)CF)on4)c3)c2cc1OC` [Ex 230, 1-[5-(1,3-difluoro-2-methylpropan-2-yl)isoxazol-3-yl]-3-{3-[6-methoxy-7-(2-methoxyethoxy)quinazolin-4-ylthio]phenyl}urea], the S35 result is listed as “C* (0.20 < C ≦ 0.40)”.
Consider `COCCOc1cc2ncnc(Sc3cccc(NC(=O)Nc4ccc(C(F)(F)F)c(F)c4)c3)c2cc1OC` [Ex 231, 1-(3-fluoro-4-(trifluoromethyl)phenyl)-3-(3-(6-methoxy-7-(2-methoxyethoxy)quinazolin-4-ylthio)phenyl)urea], for which the S35 entry is listed as “B* (0.10 < B ≦ 0.20)”.
Regarding `COCCOc1cc2ncnc(Sc3cccc(NC(=O)Nc4cc(C(C)C)on4)c3)c2cc1OC` [Ex 232, 1-(5-isopropylisoxazol-3-yl)-3-(3-(6-methoxy-7-(2-methoxyethoxy)quinazolin-4-ylthio)phenyl)urea], the S35 entry is “C* (0.20 < C ≦ 0.40)”.
Regarding `COCCOc1cc2ncnc(Sc3cccc(NC(=O)Nc4ccc(C(F)(F)F)c(OC)c4)c3)c2cc1OC` [Ex 233, 1-(3-methoxy-4-(trifluoromethyl)phenyl)-3-(3-(6-methoxy-7-(2-methoxyethoxy)quinazolin-4-ylthio)phenyl)urea], the S35 result is recorded as “C* (0.20 < C ≦ 0.40)”.
On to `COCCOc1cc2ncnc(Sc3cccc(NC(=O)Nc4cc(C(C)(C)F)no4)c3)c2cc1OC` [Ex 234, 1-(3-(2-fluoropropan-2-yl)isoxazol-5-yl)-3-(3-(6-methoxy-7-(2-methoxyethoxy)quinazolin-4-ylthio)phenyl)urea], for which the S35 result is “C* (0.20 < C ≦ 0.40)”.
Regarding `COCCOc1cc2ncnc(Sc3cccc(NC(=O)Nc4cc(C5CCCC5)on4)c3)c2cc1OC` [Ex 235, 1-(5-cyclopentylisoxazol-3-yl)-3-(3-(6-methoxy-7-(2-methoxyethoxy)quinazolin-4-ylthio)phenyl)urea], the S35 entry is recorded as “C* (0.20 < C ≦ 0.40)”.
Consider `COCCOc1cc2ncnc(Sc3cccc(NC(=O)Nc4cc(C(C)(C)C)nn4-c4ccccc4)c3)c2cc1OC` [Ex 236, 1-(3-tert-butyl-1-phenyl-1H-pyrazol-5-yl)-3-(3-(6-methoxy-7-(2-methoxyethoxy)quinazolin-4-ylthio)phenyl)urea], for which the S35 result is “D* (D > 0.40)”.
In the case of `CCOC(=O)Cn1nc(C(C)(C)C)cc1NC(=O)Nc1cccc(Sc2ncnc3cc(OCCOC)c(OC)cc23)c1` [Ex 237, ethyl 2-[3-tert-butyl-5-(3-{3-[6-methoxy-7-(2-methoxyethoxy)quinazolin-4-ylthio]phenyl}ureido)-1H-pyrazol-1-yl]acetate], the S35 entry is “C* (0.20 < C ≦ 0.40)”.
For `COCCOc1cc2ncnc(Sc3cccc(NC(=O)Nc4cc(C(C)(CF)CF)nn4-c4ccccc4)c3)c2cc1OC` [Ex 238, 1-[3-(1,3-difluoro-2-methylpropan-2-yl)-1-phenyl-1H-pyrazol-5-yl]-3-{3-[6-methoxy-7-(2-methoxyethoxy)quinazolin-4-ylthio]phenyl}urea] the value was “D* (D > 0.40)”; for `COCCOc1cc2ncnc(Sc3cccc(NC(=O)Nc4cc(C(F)(F)F)nn4C)c3)c2cc1OC` [Ex 239, 1-{3-[6-methoxy-7-(2-methoxyethoxy)quinazolin-4-ylthio]phenyl}-3-[1-methyl-3-(trifluoromethyl)-1H-pyrazol-5-yl]urea], “D* (D > 0.40)”.
